Measurements taken from ChEMBL document CHEMBL1139065, “Pyrazole-based factor Xa inhibitors containing N-arylpiperidinyl P4 residues” (Bioorg Med Chem Lett, 2007).

Legend:
Coagulation factor X = Coagulation factor X (Homo sapiens, UniProt P00742); assay: Inhibition of human factor 10a
Plasma = assay: Anticoagulant potency in human plasma assessed as concentration required to double prothrombin time; type: functional
[1] = Apparent permeability across Caco-2 cells; settings: human
[2] = Metabolic stability in human liver microsomes assessed as intrinsic clearance; type: ADME, Microsome
[3] = Clearance in dog at 0.5 mg/kg, iv; settings: in vivo
[4] = Half life in dog at 0.2 mg/kg, po; settings: in vivo
Oryctolagus cuniculus = species on record: Oryctolagus cuniculus; assay: Antithrombotic activity against rabbit arterio-venous shunt thrombosis model; type: functional, organism-based
in vivo = settings: dog, po, 0.2 mg/kg
Prothrombin = Prothrombin (Homo sapiens, UniProt P00734); assay: Inhibition of thrombin
Trypsin = Trypsin (Homo sapiens, UniProt P07477+P07478+P35030); assay: Inhibition of trypsin; type: protein assay
[5] = Half life in human liver microsomes

Coagulation factor X, sequence (P00742 41-179 limits assumed): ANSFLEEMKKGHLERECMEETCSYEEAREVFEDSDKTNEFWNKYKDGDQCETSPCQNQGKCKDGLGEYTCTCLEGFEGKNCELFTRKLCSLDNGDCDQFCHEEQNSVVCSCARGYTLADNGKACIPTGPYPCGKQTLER
Coagulation factor X, sequence (P00742 235-488 limits assumed): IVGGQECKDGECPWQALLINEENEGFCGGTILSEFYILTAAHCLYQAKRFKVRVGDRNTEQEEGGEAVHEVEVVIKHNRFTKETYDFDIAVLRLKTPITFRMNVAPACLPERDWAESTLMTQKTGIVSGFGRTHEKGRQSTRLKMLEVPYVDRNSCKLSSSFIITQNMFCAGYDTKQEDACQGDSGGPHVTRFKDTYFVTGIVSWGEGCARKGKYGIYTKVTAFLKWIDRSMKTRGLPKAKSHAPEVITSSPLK

Row | Ki (Coagulation factor X) | Compound | PT (Plasma) | further results
1 | 5.7 nM | CS(=O)(=O)c1ccccc1[C@H]1CC[C@H](NC(=O)c2cc(C(F)(F)F)nn2-c2cccc(CN)c2)CC1 | – | –
2 | 92 nM | CS(=O)(=O)c1ccccc1N1CCC(NC(=O)c2cc(C(F)(F)F)nn2-c2ccc3onc(N)c3c2)CC1=O (configuration not stated) | – | –
3 | 0.61 nM | Nc1noc2ccc(-n3nc(C(F)(F)F)cc3C(=O)NC3CCN(c4ccccc4CN4CCCC4)CC3)cc12 | 0.84 µM | Papp [1]: 1.3 ×10⁻⁶ cm/s; microsomal CLint [2]: 29 µL/min/mg; clearance [3]: 48.3 mL/min/kg; half-life [4]: 5 h; EC50 (Oryctolagus cuniculus): 740 nM; bioavailability (in vivo): 26%
4 | 81 nM | COc1ccc(-n2nc(C(N)=O)c3c2C(=O)N(C2CCN(c4ccccc4CN(C)S(C)(=O)=O)CC2)CC3)cc1 | – | –
5 | 0.7 nM | CCN(C)Cc1ccccc1N1CCC(NC(=O)c2cc(C(F)(F)F)nn2-c2ccc3onc(N)c3c2)CC1 | 1.1 µM | Papp [1]: 2.7 ×10⁻⁶ cm/s; microsomal CLint [2]: 29 µL/min/mg; clearance [3]: 71.7 mL/min/kg; half-life [4]: 2.5 h; bioavailability (in vivo): 23%
6 | 2.4 nM | CS(=O)(=O)c1ccccc1N1CCC(NC(=O)c2cc(C(F)(F)F)nn2-c2ccccc2CN)CC1 | – | –
7 | 8.8 nM | COc1ccc(-n2nc(C(F)(F)F)cc2C(=O)NC2CCN(c3ccccc3CN(C)C)CC2)cc1 | – | –
8 | 0.41 nM | COc1ccc(-n2nc(C(N)=O)c3c2C(=O)N(C2CCN(c4ccccc4CN(C)C)CC2)CC3)cc1 | 1 µM | –
9 | 0.26 nM | COc1ccc(-n2nc(C(N)=O)c3c2C(=O)N(C2CCN(c4ccccc4CN4CCCC4)CC2)CC3)cc1 | 1.2 µM | –
10 | 0.87 nM | COc1ccc(-n2nc(C(N)=O)c3c2C(=O)N(C2CCN(c4ccccc4CN4CCC[C@@H]4O)CC2)CC3)cc1 | 2.5 µM | –
11 | 0.26 nM | CCN(CC)Cc1ccccc1N1CCC(N2CCc3c(C(N)=O)nn(-c4ccc(OC)cc4)c3C2=O)CC1 | 1.5 µM | –
12 | 0.35 nM | COc1ccc(-n2nc(C(N)=O)c3c2C(=O)N(C2CCN(c4ccccc4S(C)(=O)=O)CC2)CC3)cc1 | 4.2 µM | Papp [1]: 1.5 ×10⁻⁶ cm/s; clearance [3]: 3.83 mL/min/kg; half-life [4]: 0.8 h; Ki (Prothrombin): 1200 nM; Ki (Trypsin): > 20000 nM; half-life [5]: 1.95 h; bioavailability (in vivo): 78%
13 | 23 nM | COc1ccc(-n2nc(C(N)=O)c3c2C(=O)N(C2CCN(c4ccccc4CN(C)C(C)=O)CC2)CC3)cc1 | – | –
14 | 4.9 nM | CS(=O)(=O)c1ccccc1N1CCC(NC(=O)c2cc(C(F)(F)F)nn2-c2cccc(CN)c2)CC1 | – | –
15 | 14 nM | COc1ccc(-n2nc(C(F)(F)F)cc2C(=O)NC2CCN(c3ccccc3S(C)(=O)=O)CC2)cc1 | – | –
16 | 29 nM | COc1ccc(-n2nc(C(F)(F)F)cc2C(=O)NC2CCN(c3ccccc3CN3CCCC3)CC2)cc1 | – | –
17 | 0.73 nM | Nc1noc2ccc(-n3nc(C(F)(F)F)cc3C(=O)NC3CCN(c4ccccc4CN4CCC[C@H]4O)CC3)cc12 | 0.83 µM | Papp [1]: 0.2 ×10⁻⁶ cm/s; microsomal CLint [2]: 40 µL/min/mg; clearance [3]: 36.7 mL/min/kg
18 | 3 nM | CS(=O)(=O)c1ccccc1C1=CCC(NC(=O)c2cc(C(F)(F)F)nn2-c2cccc(CN)c2)CC1 (configuration not stated) | – | –
19 | 2000 nM | CS(=O)(=O)c1ccccc1[C@H]1CC[C@@H](NC(=O)c2cc(C(F)(F)F)nn2-c2cccc(CN)c2)CC1 | – | –
20 | 1 nM | CNCc1ccccc1N1CCC(N2CCc3c(C(N)=O)nn(-c4ccc(OC)cc4)c3C2=O)CC1 | 1.8 µM | –
21 | 0.57 nM | COc1ccc(-n2nc(C(N)=O)c3c2C(=O)N(C2CCN(c4ccccc4CN4CCOCC4)CC2)CC3)cc1 | 3.5 µM | –
22 | 0.67 nM | CNCc1ccccc1N1CCC(NC(=O)c2cc(C(F)(F)F)nn2-c2ccc3onc(N)c3c2)CC1 | 1.2 µM | Papp [1]: 0.1 ×10⁻⁶ cm/s; clearance [3]: 107 mL/min/kg; half-life [4]: 0.3 h; bioavailability (in vivo): 1.7%
23 | 3.9 nM | COc1ccc(-n2nc(C(N)=O)c3c2C(=O)N(C2CCN(c4ccccc4S(N)(=O)=O)CC2)CC3)cc1 | – | –
24 | 6.6 nM | COc1ccc(-n2nc(C(F)(F)F)cc2C(=O)NC2CCN(c3ccccc3CN3CCOCC3)CC2)cc1 | – | –
25 | 1.7 nM | CS(=O)(=O)c1ccccc1N1CCC(NC(=O)c2cc(C(F)(F)F)nn2-c2ccc3onc(N)c3c2)CC1 | 2.8 µM | Papp [1]: 1.7 ×10⁻⁶ cm/s; microsomal CLint [2]: 51 µL/min/mg; clearance [3]: 18.3 mL/min/kg; half-life [4]: 1.3 h; bioavailability (in vivo): 24%
